Test: Solubility of the drug in levulinic acid at 35° C. (visual observation)
Format: physicochemical
Conditions: in 1 mL of levulinic acid at a liquid temperature of 35° C.
Protocol: The adhesive layer includes a drug. A drug that can be dissolved in levulinic acid is preferable. For example, it is preferable that 0.1 g or more of the drug can be dissolved in 1 mL of levulinic acid at a liquid temperature of 35° C.
Specifically, the solubility of the drug is determined as follows. One mL of levulinic acid is put into a test tube and kept at 35° C. to obtain liquid levulinic acid. To the liquid levulinic acid, 0.1 g of the drug is added to obtain a mixed liquid. While keeping the mixed liquid at 35° C., the mixed liquid in the test tube is vibrated for 10 minutes using an ultrasonic cleaner (e.g., a glasses cleaner). After removing the test tube from the ultrasonic cleaner and leaving it in an environment of 35° C. for 4 hours, the mixed liquid in the test tube is visually observed to check for the presence of residues or precipitates of the drug. In a case where no drug residues or precipitates are observed in the mixed liquid, it is determined that 0.1 g or more of the drug can be dissolved in 1 mL of levulinic acid at a liquid temperature of 35° C. Furthermore, in a case where drug residues or precipitates are observed in the mixed liquid, it is determined that 0.1 g or more of the drug cannot be dissolved in 1 mL of levulinic acid at a liquid temperature of 35° C.

Row | Amount of drug that can be dissolved in 1 mL of levulinic acid [g] | SMILES
1 | ≥ 0.1 | CCN1CCN(c2cc(-c3ccc(F)cc3)c3c(n2)CCCCCC3)CC1 [blonanserin]
2 | ≥ 0.1 | N=C(N)NC(=O)Cc1c(Cl)cccc1Cl [guanfacine]
3 | ≥ 0.1 | CCCN(CCc1cccs1)[C@H]1CCc2c(O)cccc2C1 [rotigotine]

From patent US20230390214A1, “ADHESIVE PATCH” (TOYO INK SC HOLDINGS CO., LTD., priority 2020, published 2023)
